{"source": "patent US6387241B1", "about": "“Method of sterilization using ozone” (priority 1993, dated 2002)", "system": "spores of Bacillus stearothermophilus and Bacillus subtilis var. niger (Duo-Spore paper spore strips)", "note": "Read-outs that look alike come from different tables or passages of the source."}
{"smiles": "O=[O+][O-]", "note": "[ozone]", "values": [{"measurement": "ozone exposure time to achieve overkill (100% of the spore strips sterilized)", "setting": "\"flow through\" mode, about 2 liters per minute, 10-12 wt% ozone", "value": 60, "unit": "min"}, {"measurement": "ozone exposure time to achieve overkill (100% of the spore strips sterilized)", "setting": "\"pressure\" mode, generator output 10-12 wt% ozone", "value": 45, "unit": "min"}, {"measurement": "ozone exposure time to achieve overkill (100% of the spore strips sterilized)", "setting": "\"single fill\" mode, static 10 wt% ozone", "value": 90, "unit": "min"}]}
